Experimental data as given in US4285941A, “Cephalosporin compounds and antibacterial drugs containing the same” (Eisai Co., Ltd., priority 1979, dated 1981).
Structures can show the parent of a compound that is named as a salt.

Legend:
[1] = Acute toxicity (LD50, mouse, oral); conditions: in vivo
Excerpt: The acute toxicity values [LD50 (mouse, oral)] for the following compounds, for example, were over 5 g/kg: […]

[2] = system: Serratia marcescens ES-75; assay: Minimal inhibitory concentration (MIC), standard agar dilution method; type: cell-based; conditions: ES75, Mueller Hinton agar, 37° C., 18 hours, Examples 1, 2, 4, 5, 6, 8 and 22 as sodium salts, others as free carboxylic acids
Protocol: (§1) The compounds obtained in these examples were tested for their antibacterial activities in vitro. Minimal inhibitory concentration (MIC) was determined by the standard agar dilution method of the Japan Society of Chemotherapy. Compounds were dissolved in appropriate solvents (sterilized water for sodium salts and acetone-water [1:1] for free acids) and serial two-fold dilutions were made. Sodium salt of Cefazolin was chosen as the control compound. One-ml aliquots of each dilution were mixed with 9 ml of Mueller Hinton agar in petri-dishes to make agar plates containing the compound at serially diluted concentrations. After agar hardened, plates were put in an incubator at 37° C. for 1.5-2 hours with the lids slightly open to evaporate acetone off the plates. Test organisms were grown for 18 hours at 37° C. in Trypticase Soy broth and diluted in saline to approximately 10^6 colony forming units per ml. A loopful of each cell suspension was applied on the agar plate mentioned above and the plates were incubated for 18 hours at 37° C. before MIC was determined. MIC values of the compounds of Examples 1, 2, 4, 5, 6, 8 and 22 were determined as their sodium salts and those of other compounds as free carboxylic acids.

Proteus morganii EP-14 = assay: as above; type: cell-based; conditions: Morganella morganii, EP14; Mueller Hinton agar, 37° C., 18 hours; Examples 1, 2, 4, 5, 6, 8 and 22 as sodium salts, others as free carboxylic acids
Protocol: as §1

[3] = system: Staphylococcus aureus 209-P; assay: as above; type: cell-based; conditions: Mueller Hinton agar, 37° C., 18 hours, Examples 1, 2, 4, 5, 6, 8 and 22 as sodium salts, others as free carboxylic acids
Protocol: as §1

[4] = system: Klebsiella pneumoniae EK-6; assay: as above; type: cell-based; conditions: EK6, Mueller Hinton agar, 37° C., 18 hours, Examples 1, 2, 4, 5, 6, 8 and 22 as sodium salts, others as free carboxylic acids
Protocol: as §1

Escherichia coli NIHJ = assay: as above; type: cell-based; conditions: Mueller Hinton agar, 37° C., 18 hours, Examples 1, 2, 4, 5, 6, 8 and 22 as sodium salts, others as free carboxylic acids
Protocol: as §1

[5] = system: Pseudomonas aeruginosa EP-172; assay: as above; type: cell-based; conditions: EP172, Mueller Hinton agar, 37° C., 18 hours, Examples 1, 2, 4, 5, 6, 8 and 22 as sodium salts, others as free carboxylic acids
Protocol: as §1

Row | SMILES | MIC [2] [mg/L] | MIC (Proteus morganii EP-14) [mg/L] | MIC [3] [mg/L] | MIC [4] [mg/L] | MIC (Escherichia coli NIHJ) [mg/L] | MIC [5] [mg/L] | LD50 [1] [mg/kg]
1 | Cn1nnnc1SCC1=C(C(=O)O)N2C(=O)[C@@H](NC(=O)[C@H](NC(=O)c3coc4cc(O)c(O)cc4c3=O)c3ccccc3)[C@H]2SC1 [Example 1, Sodium salt of 7β-[D-2-(6,7-dihydroxychromone-3-carboxamido)-2-phenylacetamido]-3-[(1-methyltetrazol-5-yl)-thiomethyl]-3-cephem-4-carboxylic acid] | ≤ 0.1 | 0.4 | 1.56 | ≤ 0.1 | 0.4 | 0.8 | > 5000
2 | CC(=O)Oc1cc2occ(C(=O)N[C@@H](C(=O)N[C@@H]3C(=O)N4C(C(=O)O)=C(CSc5nnnn5C)CS[C@H]34)c3ccccc3)c(=O)c2cc1OC(C)=O [Example 5, Sodium salt of 7β-[D-2-(6,7-diacetoxychromone-3-carboxamido)-2-phenylacetamido]-3-[(1-methyltetrazol-5-yl)thiomethyl]-3-cephem-4-carboxylic acid] | ≤ 0.1 | 0.4 | 1.56 | ≤ 0.1 | 0.2 | 0.4 | > 5000
3 | Cn1nnnc1SCC1=C(C(=O)O)N2C(=O)[C@@H](NC(=O)[C@H](NC(=O)c3coc4ccccc4c3=O)c3ccccc3)[C@H]2SC1 [Example 16, 7β-[D-2-(Chromone-3-carboxamido)-2-phenylacetamido]-3-[(1-methyltetrazol-5-yl)thiomethyl]-3-cephem-4-carboxylic acid] | 3.13 | 6.25 | ≤ 0.1 | 6.25 | 6.25 | 25 | –
4 | CC(=O)Oc1ccc2c(=O)c(C(=O)N[C@@H](C(=O)N[C@@H]3C(=O)N4C(C(=O)O)=C(CSc5nnnn5C)CS[C@H]34)c3ccc(O)cc3)coc2c1OC(C)=O [Example 11, 7β-[D-2-(7,8-Diacetoxychromone-3-carboxamido)-2-(4-hydroxyphenyl)acetamido] -3-[(1-methyltetrazol-5-yl)thiomethyl]-3-cephem-4-carboxylic acid] | 1.56 | 25 | 0.8 | ≤ 0.1 | 0.8 | 6.25 | –
5 | Cc1nnc(SCC2=C(C(=O)O)N3C(=O)[C@@H](NC(=O)[C@H](NC(=O)c4coc5cc(O)c(O)cc5c4=O)c4ccc(O)cc4)[C@H]3SC2)s1 [Example 4, Sodium salt of 7β-[D-2-(6,7-dihydroxychromone-3-carboxamido)-2-(4-hydroxyphenyl)acetamido]-3-[(5-methyl-1,3,4-thiadiazol-2-yl)thiomethyl]-3-cephem-4-carboxylicacid] | ≤ 0.1 | 1.56 | 1.56 | ≤ 0.1 | 0.8 | 1.56 | > 5000
6 | Cn1nnnc1SCC1=C(C(=O)O)N2C(=O)[C@@H](NC(=O)[C@H](NC(=O)c3coc4ccccc4c3=O)c3ccc(O)cc3)[C@H]2SC1 [Example 15, 7β-[D-2-(Chromone-3-carboxamido)-2-(4-hydroxyphenyl)acetamido]-3-[(1-methyltetrazol-5-yl)thiomethyl]-3-cephem-4-carboxylic acid] | 25 | 25 | 0.4 | 12.5 | 6.25 | 100 | –
7 | Cn1nnnc1SCC1=C(C(=O)O)N2C(=O)[C@@H](NC(=O)[C@H](NC(=O)c3coc4cc(O)ccc4c3=O)c3ccc(O)cc3)[C@H]2SC1 [Example 13, 7β-[D-2-(7-Hydroxychromone-3-carboxamido)-2-(4-hydroxyphenyl)acetamido]-3-[(1-methyltetrazol-5-yl)thiomethyl]-3-cephem-4-carboxylic acid] | 12.5 | 25 | 0.4 | 12.5 | 6.25 | 50 | –
8 | O=C(O)C1=C(CSc2nncs2)CS[C@@H]2[C@H](NC(=O)[C@H](NC(=O)c3coc4cc(O)c(O)cc4c3=O)c3ccc(O)cc3)C(=O)N12 [Example 19, 7β-[D-2-(6,7-Dihydroxychromone-3-carboxamido)-2-(4-hydroxyphenyl)acetamido]-3-[(1,3,4-thiadiazol-2-yl)thiomethyl]-3-cephem-4-carboxylic acid] | 0.2 | 12.5 | 0.8 | ≤ 0.1 | 0.4 | 0.4 | –

Second part, led by results:

Row | MIC [2] [mg/L] | MIC (Proteus morganii EP-14) [mg/L] | MIC [3] [mg/L] | MIC [4] [mg/L] | MIC (Escherichia coli NIHJ) [mg/L] | MIC [5] [mg/L] | SMILES | LD50 [1] [mg/kg]
9 | ≤ 0.1 | 3.13 | 0.8 | ≤ 0.1 | 0.2 | 0.2 | CCn1nnnc1SCC1=C(C(=O)O)N2C(=O)[C@@H](NC(=O)[C@H](NC(=O)c3coc4cc(O)c(O)cc4c3=O)c3ccc(O)cc3)[C@H]2SC1 [Example 20, 7β-[D-2-(6,7-Dihydroxychromone-3-carboxamido)-2-(4-hydroxyphenyl)acetamido]-3-[(1-ethyltetrazol-5-yl)thiomethyl]-3-cephem-4-carboxylic acid] | –
10 | 0.2 | 25 | 1.56 | ≤ 0.1 | 0.8 | 0.8 | O=C(O)C1=C(CSc2cccc[n+]2[O-])CS[C@@H]2[C@H](NC(=O)[C@H](NC(=O)c3coc4cc(O)c(O)cc4c3=O)c3ccc(O)cc3)C(=O)N12 [Example 25, 7β-[D-2-(6,7-Dihydroxychromone-3-carboxamido)-2-(4-hydroxyphenyl)acetamido]-3-[2-(pyridyl-1-oxido)thiomethyl]-3-cephem-4-carboxylic acid] | –
11 | 0.8 | 50 | 12.5 | ≤ 0.1 | 0.8 | 0.8 | O=C(O)Cn1nnnc1SCC1=C(C(=O)O)N2C(=O)[C@@H](NC(=O)[C@H](NC(=O)c3coc4c(O)c(O)c(O)cc4c3=O)c3ccc(O)cc3)[C@H]2SC1 [Example 30, 7β-[D-2-(6,7,8-Trihydroxychromone-3-carboxamido)-2-(4-hydroxyphenyl)acetamido]-3-[(1-carboxymethyltetrazol-5-yl)thiomethyl]-3-cephem-4-carboxylic acid] | –
12 | 0.2 | 50 | 0.8 | ≤ 0.1 | 0.4 | 1.56 | Cc1nnc(SCC2=C(C(=O)O)N3C(=O)[C@@H](NC(=O)[C@H](NC(=O)c4coc5cc(O)c(O)cc5c4=O)c4ccc(O)cc4)[C@H]3SC2)o1 [Example 27, 7β-[D-2-(6,7-Dihydroxychromone-3-carboxamido)-2-(4-hydroxyphenyl)acetoamido]-3-[(5-methyl-1,3,4-oxadiazol-2-yl)thiomethyl]-3-cephem-4-carboxylic acid] | –
